Experimental data taken from patent US7893108B2, “Antiviral methods and compositions” (priority 2004, dated 2011).
Where “and” joins values, the source holds several entries; their conditions need not be identical. Equal values may be shown once. Entries after “also recorded” stand apart in the source; their conditions may differ. Read-outs that look alike come from different tables or passages of the source.

How the values were obtained:
HFF cells = assay: XTT cytotoxicity assay; format: cell-based, human
Protocol: Cytotoxicity assays. HFF cells were seeded at 2×10^4, 4×10^3, or 10^3 cells per well into 96-well plates and, after a 3-hr incubation to allow cell attachment, were treated for 24, 72, or 120 hr, respectively, with various concentrations of each compound in duplicate. Cell viability was then determined with an XTT assay (Roche Molecular Biochemicals) according to the manufacturer's protocol by using a Victor plate reader (Wallac).
The cytotoxicity of the compounds was measured in an XTT assay. XTT is a compound that is converted to a product that can be measured […], but only by viable cells. This assay is as follows. HFF (human foreskin fibroblasts) cells were seeded at different concentrations into 96-well plates and treated with various concentrations (from 0 to 200 μM) of each compound in duplicate for 24, 72 or 120 hr. Cell viability was then determined with an XTT assay (Roche Molecular Biochemicals) according to the manufacturer's protocol by using a Victor plate reader (Wallac).

UL54 plus GST-UL44ΔC290 = biological target: T1, UL54 plus GST-UL44ΔC290 (Human cytomegalovirus, UniProt P16790); assay: long-chain DNA synthesis by UL54 in the presence of UL44; format: biochemical, HCMV; conditions: for inhibition of long-chain DNA synthesis by UL54 and UL44 at one concentration: 40 μM; for inhibition of long-chain DNA synthesis by UL54 and UL44: dose-response
T1 construct: GST-UL44ΔC290 fusion protein, which contains the N-terminal 290 residues of HCMV UL44; made in house; host or cells: UL54: in vitro transcription/translation; GST-UL44ΔC290: E. coli BL21 (DE3)pLysS
Protocol: To analyze the ability of the compounds to interfere with functional UL54-UL44 interactions, we tested their ability to inhibit long-chain DNA synthesis by UL54 in the presence of UL44 employing a poly(dA)-oligo(dT)12-18 template-primer.
DNA polymerase assays. The effects of compounds were tested in an assay that measures long-chain DNA synthesis as described in Loregian et al. (Loregian et al., 2004a), with 5 μl of in vitro-transcribed and -translated UL54 plus 800 fmol of GST-UL44ΔC290 in the absence or in the presence of various amounts of each compound.
The effect of the compounds was also tested in an assay that measures long chain (Lc) DNA synthesis as described in Loregian et al., J. Virol. […]

[1] = biological target: T2, full-length UL54 / UL44 interaction (Human cytomegalovirus, UniProt P16790); assay: UL54-UL44 interaction ELISA; format: binding, HCMV; conditions: concentrations up to 200 μM
T2 construct: made in house; host or cells: baculovirus expression; proteins provided by H. S. Marsden (Institute of Virology, Glasgow)
Protocol: In this assay, binding between purified baculovirus-expressed UL54 and UL44, which was tagged with an EEF epitope, was detected using an antibody that recognizes the epitope tag (Loregian et al., 2003).
UL54-UL44 interaction ELISA. This assay was conducted as described in (Loregian et al., 2003), testing various concentrations of each compound. After final washes, the chromogenic substrate 2,2′-azino-bis(3-ethylbenzothiazoline-6-sulphonic acid (ABTS, Pierce) in citrate phosphate buffer (pH 4.0) containing 0.01% hydrogen peroxide was added and absorbance was read at 405 nm on a Victor plate reader (Wallac).
Another assay that was used to test the effect of the compounds on the interaction of UL44 and UL54 is an ELISA interaction assay, which measures the interaction of the two full length proteins with each other. This assay was conducted as described in Loregian et al., J. Virol. 2003, 77:8336-8344, testing different concentrations (0, 3.12, 6.25, 12.5, 25, 50, 100, 200 μM) of each compound.

HCMV strain AD169 = assay: plaque reduction assay; format: cell-based, human cytomegalovirus; conditions: HFF cells; 0-30 μM
Protocol: Antiviral assays. Plaque reduction assays were performed essentially as follows: HFF (human foreskin fibroblast) cells were seeded at 2×10^5 cells per well in 24-well cluster dishes. The next day, cells were infected with HCMV (strain AD169) at 80 PFU per well in DMEM plus 5% fetal bovine serum (FBS) at 37° C. Two hours post-infection, the inocula were removed, cells were washed, and media containing various drug dilutions, 5% FBS, and 0.6% methylcellulose were added. All drug dilutions were tested at least in duplicate. After incubation at 37° C. for 10-11 days, cell monolayers were stained with crystal violet and plaques were counted under light microscopy.
The effect of the compounds was assessed in a plaque reduction assay that measures the number of plaques formed in the presence of varying concentrations of a drug, as follows. HFF were seeded at 2×10^5 cells per well in 24-well cluster dishes. The next day, they were infected with HCMV AD169 at 80 PFU per well in DMEM plus 5% FBS at 37° C. Two hr post-infection, the inocula were then removed, cells were washed, and media containing selected drug dilutions (0, 0.1, 0.3, 1, 3, 10, 30 μM), and 5% FBS and 0.6% methylcellulose were added. All drug dilutions were tested at least in duplicate. After incubation at 37° C. for 10-11 days, cell monolayers were stained with crystal violet and plaques were enumerated under light microscopy.

HCMV AD169 = assay: virus yield reduction assay; format: cell-based, human cytomegalovirus
Protocol: Next, we tested the effects of selected compounds and of GCV as a control in viral yield assays, which measure the titer of virus progeny produced following infection at relatively high multiplicity. In these assays, the viral titer was measured at two different times points post-infection (p.i.): at 96 hrs, when the release of virus progeny is increasing, and at 120 hrs, when the titer of virus progeny after a single cycle of replication reaches peak levels (Stinski, 1983).
(§1) For yield reduction assays, HFF cells were plated at 2×10^4 cells per well in 96-well cluster dishes, incubated overnight, and infected with HCMV AD169 at a multiplicity of infection (MOI) of 1. After virus adsorption for 2 hr at 37° C., cells were washed and incubated with 200 μl of fresh media containing test compounds at increasing drug concentration. Plates were incubated for 3 or 5 days at 37° C. and subjected to one cycle of freezing and thawing, and titers were determined by transferring 100-μl aliquots from each of the wells to a fresh 96-well monolayer culture of HFF cells followed by 1:5 serial dilution across the plate. Cultures were incubated for 7 days, cells were stained, and the numbers of plaques were determined as described above.
as §1, with “The effect of the compounds was assessed in an assay of virus yield. In this assay, cells are infected at a relatively high multiplicity of infection (about one per cell) and then drug is added. The virus produced at the different times post infection is measured. 120 hrs. is about the peak titer. This assay was conducted as follows.” for “For yield reduction assays,”, “20,000” for “2×10^4”, “an MOI” for “a multiplicity of infection (MOI)”, “0.1, 0.3, 1, 3, 10, 30 μM” for “increasing”

[2] = biological target: T3, GST-UL44ΔC290 / UL54-derived peptide interaction (Human cytomegalovirus, UniProt P16790); assay: biochemical; format: binding, HCMV; conditions: 2.5 μM GST-UL44ΔC290 and 3 nM labeled peptide
T3 construct: GST-UL44ΔC290 fusion protein, which contains the N-terminal 290 residues of HCMV UL44; made in house; host or cells: E. coli BL21 (DE3)pLysS
From the text: To identify small molecule inhibitors of the UL54-UL44 interaction, we developed an assay based on fluorescence polarization (FP) (Dandliker et al., 1981). In this assay, a peptide corresponding to the C-terminal 22 residues of UL54 (here named peptide 1, as in Loregian et al. (Loregian et al., 2003)), which was labeled with the fluorophore Oregon Green, is mixed with UL44ΔC290, a truncated protein which retains all known biochemical activities of full-length UL44 (Loregian et al., 2004b), fused to glutathione S-transferase (GST-UL44ΔC290).
We next investigated whether this assay could detect a known inhibitor of the UL54-UL44 interaction. To this end, a binding reaction of 2.5 μM GST-UL44ΔC290 and 3 nM labeled peptide was titrated with increasing concentrations of unlabeled peptide 1 (FIG. 4B).
FP assays. Unless otherwise indicated, […] of Oregon Green-labeled peptide 1 was added to 2.5 μM GST-UL44ΔC290 in 50 mM Tris-HCl (pH 7.5), 2 mM dithiothreitol, 0.5 mM EDTA, 150 mM NaCl, 4% glycerol and 100 μg/ml bovine serum albumin and kept on ice until the mix was distributed into black 384-well plates (Nunc) in a total volume of 40 μl per well. For high throughput screening, small molecules (5 mg/ml in DMSO) of the Maybridge, Bionet, Peakdale, ChemDiv, and Chembridge Microformat libraries were obtained from the ICCB, and 100 nl of each compound were transferred to individual wells using 384-pin arrays. All compounds were tested in duplicate. As controls, reaction mixtures containing either labeled peptide 1 only, or GST-UL44ΔC290 plus labeled peptide 1 (no compound), or GST-UL44ΔC290 plus labeled peptide 1 in the presence of 3 μM or 20 μM of unlabeled peptide 1, were included on each screening plate. After 15-min incubation at room temperature, FP values were determined by using an Analyst plate reader (LJL Biosystems) at the ICCB.
A fluorescence polarization (FP) assay was used to identify compounds that inhibit HCMV polymerase subunit interactions. Compounds from the Harvard Institute of Chemistry and Cell Biology (ICCB, Harvard Medical School) were screened as follows. 3 nM of a synthetic peptide corresponding to the C-terminal 22 residues of HMCV UL54 (termed peptide 1 in Loregian et al., J. Virol. 2003, 77:8336-8344) and N-terminally labeled with Oregon Green was added to 2.5 μM GST-UL44ΔC290 in 50 mM Tris-HCl (pH 7.5), 2 mM DTT, 0.5 mM EDTA, 150 mM NaCl, 4% Glycerol and 100 μg/ml bovine serum albumin and kept on ice until the mix was distributed into black 384-well plates (Nunc) in a total volume of 40 μl per well. […] After 5-min incubation at room temperature, the FP values were determined by using an Analyst plate reader (LJL Biosystems) at the ICCB. […]

[3] = read-out: IC50 for inhibition of FP (UL44-UL54 peptide interaction)
[4] = IC50 for inhibition of FP (UL44-UL54 peptide interaction)

T2 sequence (P16790 whole entry): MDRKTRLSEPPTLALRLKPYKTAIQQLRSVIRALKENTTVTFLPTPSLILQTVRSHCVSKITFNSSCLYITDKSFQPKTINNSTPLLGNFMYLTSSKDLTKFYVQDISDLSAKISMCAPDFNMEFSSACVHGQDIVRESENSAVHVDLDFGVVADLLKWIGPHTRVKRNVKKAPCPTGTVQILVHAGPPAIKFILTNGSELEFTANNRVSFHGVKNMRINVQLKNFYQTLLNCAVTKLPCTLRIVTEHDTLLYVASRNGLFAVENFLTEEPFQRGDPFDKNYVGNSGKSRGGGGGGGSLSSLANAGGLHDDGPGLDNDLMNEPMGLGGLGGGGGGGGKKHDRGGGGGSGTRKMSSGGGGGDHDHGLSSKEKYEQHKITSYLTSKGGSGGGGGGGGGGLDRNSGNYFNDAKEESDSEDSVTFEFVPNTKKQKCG
T1 sequence (P16790 1-290, stated change not applied): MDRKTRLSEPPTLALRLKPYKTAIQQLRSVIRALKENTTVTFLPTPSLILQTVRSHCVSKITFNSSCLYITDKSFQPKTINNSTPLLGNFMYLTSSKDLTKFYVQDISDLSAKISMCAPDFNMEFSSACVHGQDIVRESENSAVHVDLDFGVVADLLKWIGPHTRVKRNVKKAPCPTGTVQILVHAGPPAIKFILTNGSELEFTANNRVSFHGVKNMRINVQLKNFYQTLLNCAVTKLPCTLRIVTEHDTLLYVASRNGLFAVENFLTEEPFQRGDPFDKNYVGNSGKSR
T3 sequence (P16790 1-290, stated change not applied): as above

Row | SMILES | cytotoxicity (HFF cells) | inhibition of long-chain DNA synthesis by UL54 and UL44 (UL54 plus GST-UL44ΔC290) | effect on virus yield / HCMV replication (HCMV AD169) | also measured
1 | CCn1c2ccccc2c2cc3cc4ccccc4cc3cc21 [AL11] | significant cytotoxicity |  |  | 
2 | Nc1ccc(N)c2c1C(=O)c1c(O)ccc(O)c1C2=O [AL18] |  | relatively low IC50s | relatively low IC50s; also recorded: submicromolar | inhibition of long-chain DNA synthesis by UL54 and UL44 at one concentration (UL54 plus GST-UL44ΔC290): severely decreased formation of long DNA products; inhibition of the UL54-UL44 physical interaction [1]: potent; IC50s in plaque reduction assay (HCMV strain AD169): relatively low IC50s; CC50 (HFF cells; 120 hrs, HFF cells): 200 µM; cytotoxicity (HFF cells; HFF cells, 24, 72 or 120 hr): relatively high CC50's
3 | CN(C)c1ccc2nc3c(=O)[nH]c(=O)[nH]c3nc2c1 [AL13] | significant cytotoxicity |  |  | IC50 [2, 3]: 50 µM
4 | Cn1c(=O)cc2c3c(c(N4CCCCC4)ccc31)C(=O)c1ccccc1-2 [AL5] | relatively high CC50's | relatively low IC50s | relatively low IC50s | inhibition of long-chain DNA synthesis by UL54 and UL44 at one concentration (UL54 plus GST-UL44ΔC290): severely decreased formation of long DNA products; inhibition of the UL54-UL44 physical interaction [1]: potent; IC50s in plaque reduction assay (HCMV strain AD169): relatively low IC50s; cytotoxic concentration relative to antiviral concentration (HFF cells): 7-500 fold
5 | O=C1c2cccc3c([N+](=O)[O-])ccc(c23)C(=O)N1Cc1cccnc1 [AL19] | significant cytotoxicity |  |  | 
6 | O=C1CC(=O)c2c1cccc2[N+](=O)[O-] [AL15] |  |  |  | IC50 [2, 3]: 60 µM
7 | CCOc1cc(C2C(C#N)=C(N)Oc3n[nH]c(-c4cc(OC)c(OC)c(OC)c4)c32)cc([N+](=O)[O-])c1O (stereo not shown) [AL4] |  |  |  | effect on virus yield / HCMV replication (HCMV AD169; HFF cells): little or no effect
8 | CCN1C=CC(=CC=Cc2ccc3ccccc3[n+]2CC)c2ccccc21 [AL10] | significant cytotoxicity |  |  | IC50 [2, 4]: < 50 µM and 5 to 30 µM
9 | COc1ccccc1C=C1N=C(c2ccc(OC)c(OC)c2)N(c2cccc(F)c2)C1=O [AL6] | significant cytotoxicity |  |  | 
10 | CCOc1cc(C2C(C#N)=C(N)Oc3n[nH]c(-c4ccc(Cl)cc4)c32)cc([N+](=O)[O-])c1O (stereo not shown) [AL3] |  | little or no inhibition | little or no effect | inhibition of the UL54-UL44 physical interaction [1]: did not significantly inhibit
11 | CCOc1cc(C2C(C#N)=C(N)Oc3n[nH]c(-c4ccccc4)c32)cc([N+](=O)[O-])c1O (stereo not shown) [AL1] |  | little or no inhibition | little or no effect | 
12 | Cc1ccc(-c2nc3nc(-c4ccc(Br)cc4)cn3nc2-c2ccc(C)cc2)cc1 [AL8] |  | inactive |  | IC50 [2, 4]: < 50 µM and 5 to 30 µM
13 | CNC(=S)NN=Cc1cc(Br)ccc1O [AL14] | significant cytotoxicity |  |  | 
